According to patent US11981666B2, “GLP-1 receptor agonist and composition and use thereof” (HANGZHOU ZHONGMEIHUADONG PHARMACEUTICAL CO., LTD., priority 2021, dated 2024):
Read-outs that look alike come from different tables or passages of the source.

Assays:
[1] = target: T1, Human GLP-1R (Homo sapiens, UniProt P43220); assay: GLP-1R agonistic activity assay (HTRF cAMP, 293A GFP-GLP-1R cells); format: cell-based; details: cAMP level, geometric mean
T1 construct: expressed in transfected cells
Text: The method was a competitive immunoassay.

[2] = Metabolic stability in (human) liver microsomes; format: in vitro ADME; details: pH 7.4, test concentration 1 μM
Description: 3×NADPH stock solution (6 mM, 5 mg/mL) was prepared by dissolving NADPH in the buffer solution; 4. 30 μL of 1.5 μM additive solution containing 0.75 mg/mL microsomal solution was distributed to the plates designated for different time points (0, 5, 15, 30, 45 minutes); 5. at 0 min, 150 μL of ACN containing IS was added to the wells of the plate, followed by addition of 15 μL of NADPH stock solution (6 mM, step 3); 6. all other plates were pre-incubated at 37° C. for 5 minutes; 7. adding 15 μL of NADPH stock solution to the plate to start the reaction and timing; 8. 150 μL of ACN containing IS was added to the wells of the corresponding plates to stop the reaction at 5 min, 15 min, 30 min and 45 min, respectively; 9. after quenching, the plates were shaken on a shaker for 10 minutes (600 rpm/min) and then centrifuged at 6000 rpm for 15 minutes; 10. 80 μL of supernatant was transferred from each well to a 96-well sample plate containing 140 μL water for LC/MS analysis.
Detection method: LC-MS/MS-11 (8050), internal standard: tolbutamide; MS conditions: positive ion ESI for testosterone and test compound, and negative ion ESI for tolbutamide; Mobile phases: mobile phase A is 0.1% FA in water, and mobile phase B is 0.1% FA in ACN; Column and specification: ACQUITY UPLC HSS T3 1.8 um 2.1*50 mm.

[3] = target: T2, hERG potassium channels (Homo sapiens, UniProt Q12809); assay: Test for inhibition of hERG potassium channels (whole-cell patch clamp, HEK-293-hERG cells); format: cell-based
T2 construct: expressed in transfected cells; host or cells: HEK-293-hERG cells
Text: Positive control: Amitriptyline hydrochloride or Terfenadine

[4] = test system: ICR mice; assay: Toxicological experiment in mice, 14-day repeated oral gavage (toxicity study); format: in vivo
Description: (§1) Experimental method: 212 ICR mice (SPF grade), half male and half female. Animals in groups 1-5 were used for toxicity study, with 10 male and 10 female animals in each group; and animals in groups 6-9 were used for toxicokinetic study, with 14 male and 14 female animals in each group (2 of them were spare animals). […] Animals in Groups 1-9 were administered orally once a day for 14 consecutive days.

[5] = Toxicological experiment in mice, 14-day repeated oral gavage (toxicokinetic study); format: in vivo, mouse; details: ICR, mouse, po, 200 mg/kg, Day 14; for AUC(0-t): plasma, read-out: AUC(0-t), the systemic exposure (first value listed)
Description: as §1

[6] = test system: ICR mice; assay: as above; format: in vivo, mouse; details: toxicokinetic study, male animals, 200 mg/kg oral once a day for 14 days
Description: as §1

T1 sequence (P43220 24-463): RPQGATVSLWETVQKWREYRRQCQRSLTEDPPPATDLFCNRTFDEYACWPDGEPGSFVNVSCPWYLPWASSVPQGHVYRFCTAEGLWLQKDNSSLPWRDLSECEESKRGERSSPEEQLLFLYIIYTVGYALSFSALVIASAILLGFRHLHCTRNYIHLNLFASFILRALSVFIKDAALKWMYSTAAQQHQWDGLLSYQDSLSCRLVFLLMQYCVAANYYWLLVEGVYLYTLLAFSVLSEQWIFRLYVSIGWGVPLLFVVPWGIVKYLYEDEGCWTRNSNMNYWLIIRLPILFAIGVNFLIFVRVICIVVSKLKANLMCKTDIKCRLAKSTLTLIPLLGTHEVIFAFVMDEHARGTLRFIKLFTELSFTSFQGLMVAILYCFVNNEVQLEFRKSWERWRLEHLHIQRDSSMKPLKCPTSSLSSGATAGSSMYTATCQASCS
T2 sequence (Q12809 whole entry): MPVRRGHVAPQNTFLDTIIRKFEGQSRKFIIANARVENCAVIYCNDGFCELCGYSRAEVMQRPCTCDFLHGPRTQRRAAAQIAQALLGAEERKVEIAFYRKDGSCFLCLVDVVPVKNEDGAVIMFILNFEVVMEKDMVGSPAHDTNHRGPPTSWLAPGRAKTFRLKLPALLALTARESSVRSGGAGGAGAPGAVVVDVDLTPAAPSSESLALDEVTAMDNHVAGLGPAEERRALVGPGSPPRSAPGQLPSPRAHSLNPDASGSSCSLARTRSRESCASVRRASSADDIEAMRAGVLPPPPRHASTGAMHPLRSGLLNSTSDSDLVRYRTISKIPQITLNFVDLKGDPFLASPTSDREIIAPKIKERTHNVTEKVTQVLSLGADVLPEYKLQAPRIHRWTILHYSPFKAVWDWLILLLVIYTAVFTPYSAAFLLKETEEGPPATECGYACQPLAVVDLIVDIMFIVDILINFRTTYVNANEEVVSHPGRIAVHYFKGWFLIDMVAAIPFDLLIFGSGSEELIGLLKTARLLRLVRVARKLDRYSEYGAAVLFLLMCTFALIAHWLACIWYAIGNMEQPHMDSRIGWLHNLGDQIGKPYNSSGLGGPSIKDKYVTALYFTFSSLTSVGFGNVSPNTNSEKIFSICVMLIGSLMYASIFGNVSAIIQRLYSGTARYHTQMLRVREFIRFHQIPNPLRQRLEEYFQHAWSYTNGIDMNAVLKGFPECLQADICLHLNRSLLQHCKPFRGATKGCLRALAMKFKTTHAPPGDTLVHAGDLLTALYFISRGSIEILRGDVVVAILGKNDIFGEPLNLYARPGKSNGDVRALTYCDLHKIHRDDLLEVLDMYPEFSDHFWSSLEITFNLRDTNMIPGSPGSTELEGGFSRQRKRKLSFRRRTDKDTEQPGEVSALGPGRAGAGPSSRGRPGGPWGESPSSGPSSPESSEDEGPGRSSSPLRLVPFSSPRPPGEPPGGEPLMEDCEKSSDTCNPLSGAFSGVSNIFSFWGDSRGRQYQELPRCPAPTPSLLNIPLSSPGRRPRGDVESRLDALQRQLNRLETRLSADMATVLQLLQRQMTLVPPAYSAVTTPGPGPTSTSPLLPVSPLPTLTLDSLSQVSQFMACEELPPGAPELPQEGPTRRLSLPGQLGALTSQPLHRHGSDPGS

O=C(O)c1ccc2nc(CN3CCC4=C(COCc5ccc(OCc6ccc(C7COC7)cc6F)nc54)C3)n(C[C@@H]3CCO3)c2c1 [Compound 7, (S)-2-((2-((2-fluoro-4-(oxetan-3-yl)benzyl)oxy)-5,8,10,11-tetrahydro-oxepino[4,3-b: 6,5-c′]dipyridin-9(7H)-yl)methyl)-1-(oxetan-2-ylmethyl)-1H-benzo[d]imidazole-6-carboxylic acid]
EC50 [1]: 0.1 nM
half-life at 1 μM [2]: 1.74 h

N#CCC1(Cn2c(Cc3ccc(-c4cccc(OCc5ccc(C6COC6)cc5F)n4)cc3F)nc3ccc(C(=O)O)cc32)CC1 [Compound 8, 1-((1-(cyanomethyl)cyclopropyl)methyl)-2-(2-fluoro-4-(6-((2-fluoro-4-(oxetan-3-yl)benzyl)oxy)pyridin-2-yl)benzyl)-1H-benzo[d]imidazole-6-carboxylic acid]
EC50 [1]: 0.02 nM

O=C(O)c1ccc2nc(CN3CCC(c4cccc(OCc5ccc(C6COC6)cc5C(F)F)n4)CC3)n(C[C@@H]3CCO3)c2c1 [Compound 18, (S)-2-((4-(6-((2-(difluoromethyl)-4-(oxetan-3-yl)benzyl)oxy)pyridin-2-yl)piperidin-1-yl)methyl)-1-(oxetan-2-ylmethyl)-1H-benzo[d]imidazole-6-carboxylic acid]
EC50 [1]: 0.85 nM

O=C(O)c1ccc2nc(CN3CCC(c4cccc(OCc5ccc(C6COC6)cc5F)n4)CC3)n(CC3(CF)CC3)c2c1 [Compound 5, 2-((4-(6-((2-fluoro-4-(oxetan-3-yl)benzyl)oxy)pyridin-2-yl)piperidin-1-yl)methyl)-1-((1-(fluoromethyl)cyclopropyl)methyl)-1H-benzo[d]imidazole-6-carboxylic acid]
EC50 [1]: 0.003 nM

O=C(O)c1ccc2nc(CN3CCC(c4cccc(OCc5ccc(C6(F)COC6)cc5F)n4)CC3)n(C[C@@H]3CCO3)c2c1 [Compound 15, (S)-2-((4-(6-((2-fluoro-4-(3-fluoroxetan-3-yl)benzyl)oxy)pyridin-2-yl)piperidin-1-yl)methyl)-1-(oxetan-2-ylmethyl)-1H-benzo[d]imidazole-6-carboxylic acid]
EC50 [1]: 0.08 nM

N#CCC1(Cn2c(CN3CCC(c4cccc(OCc5ccc(C6COC6)cc5F)n4)CC3)nc3ccc(C(=O)O)cc32)CC1 [Compound 4, 1-((1-(cyanomethyl)cyclopropyl)methyl)-2-((4-(6-((2-fluoro-4-(oxetan-3-yl)benzyl)oxy)pyridin-2-yl)piperidin-1-yl)methyl)-1H-benzo[d]imidazole-6-carboxylic acid]
EC50 [1]: 0.08 nM

COc1cc(C2COC2)ccc1COc1cccc(C2CCN(Cc3nc4ccc(C(=O)O)cc4n3C[C@@H]3CCO3)CC2)n1 [Compound 3, (S)-2-((4-(6-((2-methoxy-4-(oxetan-3-yl)benzyl)oxy)pyridin-2-yl)piperidin-1-yl)methyl)-1-(oxetan-2-ylmethyl)-1H-benzo[d]imidazole-6-carboxylic acid]
EC50 [1]: 0.03 nM
half-life at 1 μM [2]: 2.56 h

O=C(O)c1ccc2nc(CN3CCC(c4cccc(OCc5ccc(C6COC6)cc5Cl)n4)CC3)n(C[C@@H]3CCO3)c2c1 [Compound 2, (S)-2-((4-(6-((2-chloro-4-(oxetan-3-yl)benzyl)oxy)pyridin-2-yl)piperidin-1-yl)methyl)-1-(oxetan-2-ylmethyl)-1H-benzo[d]imidazole-6-carboxylic acid]
EC50 [1]: 0.07 nM
half-life at 1 μM [2]: 2.06 h

O=C(O)c1ccc2nc(CN3CCC4c5nc(OCc6ccc(C7COC7)cc6Cl)ccc5COCC4C3)n(CC3CCO3)c2c1 (single isomer, unassigned) [Compound 17-B]
EC50 [1]: 0.14 nM

O=C(O)c1ccc2nc(CN3CCC4c5nc(OCc6ccc(C7COC7)cc6F)ccc5COCC4C3)n(C[C@@H]3CCO3)c2c1 (single isomer, unassigned) [Compound 12-B]
EC50 [1]: 0.1 nM
half-life at 1 μM [2]: 1.2 h

O=C(O)c1ccc2nc(CN3CCC(c4cccc(OCc5ccc(C6COC6)cn5)n4)CC3)n(C[C@@H]3CCO3)c2c1 [Compound 6, (S)-1-(oxetan-2-ylmethyl)-2-((4-(6-((5-(oxetan-3-yl)pyridin-2-yl)methoxy)pyridin-2-yl)piperidin-1-yl)methyl)-1H-benzo[d]imidazole-6-carboxylic acid]
EC50 [1]: 0.7 nM
half-life at 1 μM [2]: 0.717 h

O=C(O)c1ccc2nc(Cc3ccc(-c4cccc(OCc5ccc(C6COC6)cc5F)n4)cc3F)n(CC3(CF)CC3)c2c1 [Compound 10, 2-(2-fluoro-4-(6-((2-fluoro-4-(oxetan-3-yl)benzyl)oxy)pyridin-2-yl)benzyl)-1-((1-(fluoromethyl)cyclopropyl)methyl)-1H-benzo[d]imidazole-6-carboxylic acid]
EC50 [1]: 0.03 nM

O=C(O)c1ccc2nc(Cc3ccc(-c4cccc(OCc5ccc(C6COC6)cc5F)n4)cc3F)n(C[C@@H]3CCO3)c2c1 [Compound 11, (S)-2-(2-fluoro-4-(6-((2-fluoro-4-(oxetan-3-yl)benzyl)oxy)pyridin-2-yl)benzyl)-1-(oxetan-2-ylmethyl)-1H-benzo[d]imidazole-6-carboxylic acid]
EC50 [1]: 0.011 nM
half-life at 1 μM [2]: 1.05 h

N#Cc1ccc(COc2cccc(C3CCN(Cc4nc5ccc(C(=O)O)cc5n4C[C@@H]4CCO4)CC3)n2)c(F)c1 [Compound 20, 2-[(4-{6-[(4-cyano-2-fluorophenyl)methoxy]pyridin-2-yl}piperidin-1-yl)methyl]-1-{[(2S)-oxetan-2-yl]methyl}-1H-1,3-benzodiazole-6-carboxylic acid, reference compound]
IC50 [3]: 5800 nM
half-life at 1 μM [2]: 1.87 h
non-toxic response dose level ([4]; ICR mice, gavage once a day for 14 consecutive days): less than 200 mg/kg
biochemical analysis of serum ([4]; compared to vehicle control): increase in TBIL
clinical observation ([4]; toxicity and toxicokinetic studies, 200 mg/kg): decreased activity, piloerection, cold skin when touched, arched-back posture and prone position were frequently observed
animals found dead ([4]; toxicity study, male animals, 200 mg/kg oral once a day for 14 days): 2/10
AUC(0-inf) ([5]; plasma of female animals): 331 µg·h/mL
Cmax ([5]; plasma of female animals): 104 µg/mL
AUC(0-inf) ([5]; plasma of male animals): 254 µg·h/mL
Cmax ([5]; plasma of male animals): 91 µg/mL
AUC(0-t) ([5]; female, plasma of female animals): 338 µg·h/mL
AUC(0-t) ([5]; male, plasma of male animals): 387 µg·h/mL
animals found dead [6]: 4/14

O=C(O)c1ccc2nc(CN3CCC(c4cccc(OCc5ccc(C6COC6)cc5F)n4)CC3)n(CC3(F)CCC3)c2c1 [Compound 9, 2-((4-(6-((2-fluoro-4-(oxetan-3-yl)benzyl)oxy)pyridin-2-yl)piperidin-1-yl)methyl)-1-((1-fluorocyclobutyl)methyl)-1H-benzo[d]imidazole-6-carboxylic acid]
EC50 [1]: 0.39 nM
